PMC4402683, “FIBT versus florbetaben and PiB: a preclinical comparison study with amyloid-PET in transgenic mice” (EJNMMI Research, 2015)

Columns and labels:
[1] = Ex vivo brain uptake studies in BALB/c mice; set-up: species or system mouse; conditions: BALB/c mice without Aβ pathology, compared to [^18F]FIBT
Experimental: Ex vivo brain uptake studies were performed in male BALB/c mice (mean ± SD body weight: 23 ± 2 g). […] Groups of mice were killed at 5 and 30 min p.i. Radioactivity of weighted brain samples was measured in a γ-counter (Wallac 1480-011 Automatic Gamma Counter, PerkinElmer, Waltham, MA, USA). Data are expressed as percent of the injected dose per gram tissue (% I.D./g; mean ± SD, N = 5).

Aβ plaques = test: Small animal PET imaging in APP/PS1 tg and control mice (cortex + hippocampus-to-cerebellum PET ratio); type: in vivo, mouse; conditions: for Mean PET ratio (SUVR ± SD), cortex + hippocampus to cerebellum: 36 to 45 min; for SUVRtg/SUVRctl (tg/ctl): ratio of APP/PS1 tg to control mice SUVR
Experimental: Inhalation anesthesia with isoflurane was used and the eyes of the animals were protected with dexpanthenol eye ointment. Anesthesia was initiated 15 min ahead of experiments by placing the animal in a cage ventilated with oxygen (3.5 L/min) containing 3% isoflurane. Throughout the experiments, anesthesia was maintained by adjusting the isoflurane content (0.6% to 2%) to ensure a respiratory rate in the range 80 to 100/min. For i.v. injection, we inserted a tailored catheter into the lateral tail vein. Simultaneously with a slow bolus injection of 50 to 200 μL of tracer solution, we started the PET with scan duration of 45 min in 3D list mode on a Siemens Inveon system (axial field-of-view of 12.7 cm with a bore diameter of 12 cm, approximately 1.4 mm full-width-at-half-maximum spatial resolution; Siemens Healthcare, Erlangen, Germany). After tracer injection, we flushed the catheter with 50 to 100 μL of isotonic sodium chloride solution. During the scan, a heating pad prevented hypothermia. The radioactivity in the syringe was measured immediately before and after injection with a Capintec CRC® 15R (Capintec Inc, 6 Arrow Road Ramsey, NJ, USA) dose calibrator.
Based on our experience, variance of macroscopic brain anatomy is very low across mice with the same genetic background. Therefore, the creation of a MRI template was done by manual co-registration of all MR images based on prominent brain structures and the overall cortical contour and calculation of a mean image (Pmod 3.3, Pmod Technologies, Zurich, Switzerland). Structures outside of the brain were not considered in the manual co-registration process. Two major volume-of-interests (VOIs) were defined on the MRI template, one comprising the full cortex including hippocampus, the other comprising the full cerebellum. The same VOIs were then used for reading out co-registered PET data of a mean image of the final 10 min of the scan (minute 36 to 45). The VOIs were chosen based on previous findings in a voxel-based analysis of cerebral PiB uptake and its correlation with the underlying Aβ pathology in this mouse model. PET data was normalized and corrected for decay and dead time. The images were reconstructed by means of filtered back-projection (FBP), using a ramp filter with a cutoff at the Nyquist frequency into 45 frames (45 × 60 s). The image volume consisted of 128 × 128 × 159 voxels, each of a size of 0.78 × 0.78 × 0.80 mm. The PET images were manually co-registered with the MRI template. This was done by using the wash-in phase of the tracer to identify the brain contour for alignment with the MRI template. We scaled the PET images to percentage of injected dose per cubic centimeter. We then applied these VOIs to the co-registered PET images and exported the VOI values to Microsoft Excel 2010 in order to calculate cortex + hippocampus-to-cerebellum ratios (further referred to as PET ratios).
We tested the tg/ctl ratios for significance. First, we performed a one-way ANOVA between the three groups showing significance.

Aβ aggregates [2] = conditions: post mortem AD brain homogenates; cited from earlier work
Aβ deposits = test: Ex vivo autoradiography, cortex/cerebellum uptake ratio; type: in vivo, mouse; conditions: n ≥ 3
Experimental: In the present study, ex vivo autoradiography of [^18F]FIBT and [^18F]Florbetaben (Figure SI-1) were performed following a published procedure (Manook et al., 2012).
Figure SI-1. [^18F]FIBT and [^18F]Florbetaben autoradiography and cortex/ cerebellum uptake ratio (n≥ 3). Images of digital ex vivo autoradiography of a 12 µm thick axial section of age- and gender matched control (A and C) and APP/PS1 tg mouse brain (B and D). [^18F]FIBT (A and B), and [^18F]Florbetaben (C and D).

[3] = Lipophilicity (log Doct/PBS) by partition between 1-octanol and PBS; type: physicochemical; conditions: 1-octanol/PBS pH 7.4, mean ± SD, N = 6
Experimental: Lipophilicity of the employed compounds was determined by a conventional partition method between 1-octanol and phosphate buffered saline (PBS), pH 7.4. The 1-octanol was saturated with PBS before use. Briefly, the no-carrier-added tracers, contained in 0.2 mL PBS, were added 0.2 mL of 1-octanol in a 1.5-mL polypropylene Eppendorf vial. The vial was sealed and vigorously shaken at room temperature for 5 min. The mixture was then centrifuged at 3,000 g for 10 min. A 100 μL aliquot from each of the two phases was drawn and their radioactivity content was determined in a NaI (Tl) well-type detector. The log Doct/PBS was calculated as follows: log Doct/PBS = log (radioactivity concentration in the 1-octanol phase/radioactivity concentration in the PBS phase). The reported values represent the mean of six independent measurements.

Aβ aggregates [4] = biological target: Aβ aggregates; set-up: method as in PMID 24900362; conditions: versus [^3H]PiB; cited from earlier work
[5] = APP/PS1 tg mice (N = 4), 24-month-old

SMILES: CNc1ccc(/C=C/c2ccc(OCCOCCOCCF)cc2)cc1 [[^18F]florbetaben, florbetaben]
- Initial brain uptake ([1]; 5 min p.i.): lower initial uptake
- Brain tracer retention ([1]; 30 min p.i.): higher tracer retention
- Mean PET ratio (SUVR ± SD), cortex + hippocampus to cerebellum (Aβ plaques; [5]): 1.35 ± 0.06
- Mean PET ratio (SUVR ± SD), cortex + hippocampus to cerebellum (Aβ plaques; C57BL6/J control mice (N = 3)): 0.90 ± 0.01
- SUVRtg/SUVRctl (tg/ctl) (Aβ plaques): 1.50 ± 0.06
- Kd (Aβ aggregates [2]): 6.7 ± 0.3 nM
- Ctx/Clb ratio (Aβ deposits; APP/PS1 tg mouse brain): 2.0 ± 0.3
- Ctx/Clb ratio (Aβ deposits; Ctl mouse brain): 1.3 ± 0.1
- logD at 5 min ([3]; read-out: Log D oct/PBS): 1.58 ± 0.13

SMILES: CNc1ccc(-c2cn3c(n2)sc2cc(OCC[18F])ccc23)cc1 [[^18F]FIBT, 2-(p-methylaminophenyl)-7-(2-[^18F]fluoroethoxy)imidazo[2,1-b]benzothiazole]
- Mean PET ratio (SUVR ± SD), cortex + hippocampus to cerebellum (Aβ plaques; [5]): 1.68 ± 0.15
- Mean PET ratio (SUVR ± SD), cortex + hippocampus to cerebellum (Aβ plaques; C57BL6/J control mice (N = 3)): 0.95 ± 0.02
- SUVRtg/SUVRctl (tg/ctl) (Aβ plaques): 1.78 ± 0.16
- Kd (Aβ aggregates [2]): 0.7 ± 0.2 nM
- Ki (Aβ aggregates [4]): 2.1 ± 0.8 nM
- Ctx/Clb ratio (Aβ deposits; APP/PS1 tg mouse brain): 4.7 ± 0.3
- Ctx/Clb ratio (Aβ deposits; Ctl mouse brain): 1.1 ± 0.1
- Log D oct/PBS [3]: 1.92 ± 0.06

SMILES: CNc1ccc(-c2nc3ccc(O)cc3s2)cc1 [[^11C]PiB, Pittsburgh compound B]
- SUVRtg/SUVRctl (tg/ctl) (Aβ plaques): 2.11 ± 0.24
